DBAASP
In brackets after ≈: the same amount, converted by molar mass. Several values for one entry are separate records, joined by “and”; a condition that tells them apart may be missing. Equal values may be shown once.

Tests used:
Experiment in all cases: ≥ marks a high value that may be exact or a test limit, other limits are often not marked, values filed in µg/mL are converted to µM
Staphylococcus aureus = test system: Staphylococcus aureus
Candida albicans = test system: Candida albicans
Escherichia coli = test system: Escherichia coli
[1] = test system: Escherichia coli ATCC 25922
[2] = test system: Staphylococcus aureus ATCC 25923
Klebsiella pneumoniae = test system: Klebsiella pneumoniae
[3] = test system: Bacillus subtilis ATCC 6633
Acinetobacter baumannii = test system: Acinetobacter baumannii
[4] = test system: Klebsiella pneumoniae ATCC 13883
[5] = test system: Klebsiella pneumoniae ATCC 700603
[6] = test system: Pseudomonas aeruginosa ATCC 9027
[7] = test system: Candida albicans ATCC 10231
[8] = test system: Staphylococcus aureus ATCC 29213
[9] = test system: Pseudomonas aeruginosa ATCC 27853
[10] = test system: Salmonella enterica subsp. enterica serovar Typhimurium ATCC 14028
Escherichia coli UB1005 = test system: Escherichia coli UB1005
[11] = test system: Pseudomonas aeruginosa PAO1

CSCC[C@H](NC(=O)[C@@H](N)CO)C(=O)N[C@@H](CC(C)C)C(=O)N[C@@H](CO)C(=O)N[C@H](C(=O)N[C@@H](CC(C)C)C(=O)N[C@@H](CCCCN)C(=O)N[C@@H](CC(N)=O)C(=O)N[C@@H](CC(C)C)C(=O)NCC(=O)N[C@@H](CCCCN)C(=O)N[C@H](C(=O)NCC(=O)N[C@@H](CC(C)C)C(=O)NCC(=O)N[C@@H](Cc1ccccc1)C(=O)N[C@H](C(=O)N[C@@H](C)C(=O)O)C(C)C)C(C)C)C(C)C [SMLSVLKNLGKVGLGFVA]
MIC (Staphylococcus aureus): > 200 µM
MIC (Candida albicans): > 200 µM
MIC (Escherichia coli): > 200 µM

CC[C@H](C)[C@H](NC(=O)CNC(=O)[C@H](CC(N)=O)NC(=O)[C@@H](NC(=O)[C@H](C)NC(=O)[C@H](CC(N)=O)NC(=O)[C@H](CC(C)C)NC(=O)[C@H](C)NC(=O)[C@H](C)NC(=O)[C@H](CCCN=C(N)N)NC(=O)CNC(=O)[C@H](C)NC(=O)[C@H](C)NC(=O)[C@H](C)NC(=O)[C@H](C)NC(=O)[C@H](CCSC)NC(=O)[C@H](CC(=O)O)NC(=O)[C@H](CCCCN)NC(=O)[C@@H](NC(=O)[C@H](CO)NC(=O)[C@H](CO)NC(=O)[C@H](Cc1c[nH]c2ccccc12)NC(=O)[C@H](CC(C)C)NC(=O)[C@@H](N)CO)[C@@H](C)CC)C(C)C)C(=O)N[C@@H](CC(C)C)C(=O)N[C@@H](CC(N)=O)C(=O)N1CCC[C@H]1C(N)=O [SLWSSIKDMAAAAGRAALNAVNGILNP]
MIC [1]: 47.2 µM (≈ 128 µg/mL)
MIC (Candida albicans): > 189 µM
MIC [2]: 189 µM (≈ 512 µg/mL)
MIC (Klebsiella pneumoniae): 189 µM (≈ 512 µg/mL)

CC[C@H](C)[C@H](NC(=O)[C@H](CCCN=C(N)N)NC(=O)[C@@H](NC(=O)[C@@H]1CCCN1C(=O)[C@H](CCCN=C(N)N)NC(=O)[C@@H](NC(=O)[C@@H]1CCCN1C(=O)[C@H](CCCN=C(N)N)NC(=O)[C@H](CC(C)C)NC(=O)CNC(=O)[C@H](Cc1cnc[nH]1)NC(=O)[C@@H]1CCCN1C(=O)CNC(=O)[C@H](CC(C)C)NC(=O)[C@H](CC(N)=O)NC(=O)[C@H](Cc1c[nH]c2ccccc12)NC(=O)[C@H](C)NC(=O)[C@@H](NC(=O)[C@H](C)N)[C@@H](C)O)[C@@H](C)CC)[C@@H](C)CC)C(=O)N[C@@H](CCCN=C(N)N)C(=O)N1CCC[C@H]1C(=O)N[C@@H](CC(C)C)C(=O)N[C@@H](CS)C(=O)NCC(=O)N[C@@H](CCCCN)C(=O)N[C@@H](CC(=O)O)C(=O)N[C@@H](CCCCN)C(=O)N[C@@H](CO)C(=O)O [ATAWNLGPHGLRPIRPIRIRPLCGKDKS]
MIC [3]: ≥ 100 µM

CC(C)C[C@H](NC(=O)[C@H](C)NC(=O)[C@H](CCCN=C(N)N)NC(=O)[C@H](C)NC(=O)[C@H](Cc1c[nH]c2ccccc12)NC(=O)CNC(=O)[C@H](CCCN=C(N)N)NC(=O)[C@@H](N)CCCN=C(N)N)C(=O)N[C@@H](C)C(=O)N[C@@H](Cc1ccccc1)C(=O)N[C@@H](C)C(=O)N[C@@H](Cc1ccccc1)C(=O)NCC(=O)N[C@@H](CCCN=C(N)N)C(N)=O [RRGWARALAFAFGR]
MIC [1]: 6.6 µM and 15.5 µM
MIC (Acinetobacter baumannii): 1.8 µM (≈ 2.94 µg/mL)
MIC [4]: 14.8 µM and 30 µM
MIC [2]: > 30 µM
MIC (Klebsiella pneumoniae): 1.9 µM (≈ 3.1 µg/mL)

CC[C@H](C)[C@H](NC(=O)[C@H](CC(C)C)NC(=O)[C@H](CCCCN)NC(=O)[C@@H](NC(=O)[C@H](CC(C)C)NC(=O)[C@H](CCCN=C(N)N)NC(=O)[C@H](CCCN=C(N)N)NC(=O)[C@@H](NC(=O)[C@H](C)NC(=O)[C@H](CCCCN)NC(=O)[C@H](C)NC(=O)[C@H](CC(C)C)NC(=O)[C@@H](NC(=O)[C@@H](N)CCCN=C(N)N)[C@@H](C)CC)[C@@H](C)O)C(C)C)C(=O)N[C@H](C(=O)N[C@@H](CO)C(=O)NCC(=O)O)C(C)C [RILAKATRRLVKLIVSG]
MIC [5]: > 25 µM
MIC [1]: > 25 µM
MIC (Acinetobacter baumannii): 25 µM (≈ 47.4 µg/mL)
MIC [6]: > 25 µM
MIC [2]: > 25 µM

CC(C)C[C@H](NC(=O)[C@H](CCCCN)NC(=O)[C@H](Cc1ccccc1)NC(=O)[C@H](CC(C)C)NC(=O)[C@H](CC(C)C)NC(=O)[C@@H]1CCCN1C(=O)[C@H](CCCCN)NC(=O)[C@H](CC(C)C)NC(=O)[C@H](CCCCN)NC(=O)[C@@H]1CCCN1C(=O)[C@H](CC(C)C)NC(=O)[C@H](CC(C)C)NC(=O)[C@H](CC(C)C)NC(=O)[C@H](CCCCN)NC(=O)[C@H](CC(C)C)NC(=O)[C@H](CC(C)C)NC(=O)[C@H](CCCCN)NC(=O)[C@@H](N)Cc1ccc(O)cc1)C(N)=O [YKLLKLLLPKLKPLLFKL]
MIC [7]: 69.1 µM (≈ 151 µg/mL)
MIC [8]: 1.78 µM (≈ 3.87 µg/mL)
MIC [9]: 4.54 µM (≈ 9.9 µg/mL)

CC(C)C[C@H](NC(=O)[C@H](CCCN=C(N)N)NC(=O)[C@H](CCCN=C(N)N)NC(=O)[C@H](C)NC(=O)[C@H](Cc1c[nH]c2ccccc12)NC(=O)CNC(=O)[C@H](CCCN=C(N)N)NC(=O)[C@@H](N)CCCN=C(N)N)C(=O)N[C@@H](Cc1ccccc1)C(=O)N[C@@H](C)C(=O)N[C@@H](C)C(=O)N[C@@H](Cc1ccccc1)C(=O)NCC(=O)N[C@@H](CCCN=C(N)N)C(=O)N[C@@H](CCCN=C(N)N)C(N)=O [RRGWARRLFAAFGRR]
MIC [1]: 11.5 µM and 30 µM
MIC (Acinetobacter baumannii): 4.8 µM (≈ 9 µg/mL)
MIC [4]: 30 µM (≈ 56.3 µg/mL)
MIC [10]: 10.6 µM and 30 µM
MIC [2]: > 30 µM
MIC (Klebsiella pneumoniae): 1.8 µM (≈ 3.38 µg/mL)

CC[C@H](C)[C@H](NC(=O)[C@H](CCCN=C(N)N)NC(=O)[C@H](CCCN=C(N)N)NC(=O)[C@@H]1CCCN1C(=O)[C@H](Cc1c[nH]c2ccccc12)NC(=O)[C@H](CCCN=C(N)N)NC(=O)[C@@H]1CCCN1C(=O)[C@H](CCCN=C(N)N)NC(=O)[C@@H]1CCCN1C(=O)[C@H](CC(C)C)NC(=O)[C@H](Cc1ccc(O)cc1)NC(=O)[C@@H]1CCCN1C(=O)[C@@H]1CCCN1C(=O)[C@H](CCCCN)NC(=O)[C@H](CC(=O)O)NC(=O)[C@@H](N)C(C)C)C(=O)N[C@@H](Cc1ccc(O)cc1)C(=O)N[C@@H](CC(N)=O)C(=O)N[C@@H](CCCN=C(N)N)C(N)=O [VDKPPYLPRPRWPRRIYNR]
MIC (Escherichia coli UB1005): 1.01 µM (≈ 2.5 µg/mL)
MIC [11]: 12.9 µM (≈ 32 µg/mL)
MIC [2]: 6.45 µM (≈ 16 µg/mL)

CC(C)C[C@H](NC(=O)CNC(=O)[C@H](C)NC(=O)[C@@H](NC(=O)[C@H](CCCN=C(N)N)NC(=O)[C@H](CCCN=C(N)N)NC(=O)[C@H](CC(C)C)NC(=O)[C@@H](N)CC(C)C)C(C)C)C(=O)N[C@@H](CC(C)C)C(=O)N[C@@H](CCCCN)C(=O)N[C@@H](CCC(N)=O)C(=O)N[C@@H](Cc1ccccc1)C(=O)N[C@@H](C)C(=O)N[C@@H](CCCCN)C(=O)O [LLRRVAGLLKQFAK]
MIC [1]: 2.48 µM (≈ 4 µg/mL)
MIC [3]: 9.92 µM (≈ 16 µg/mL)
MIC [9]: 4.96 µM (≈ 8 µg/mL)
MIC [2]: 9.92 µM (≈ 16 µg/mL)

CC[C@H](C)[C@H](NC(=O)[C@@H](NC(=O)[C@@H]1CCCN1C(=O)[C@@H](NC(=O)[C@@H]1CCCN1C(=O)[C@H](CCCCN)NC(=O)[C@H](CCCCN)NC(=O)[C@H](CO)NC(=O)CN)C(C)C)[C@@H](C)CC)C(=O)N[C@@H](Cc1ccc(O)cc1)C(=O)N[C@H]1CSSC[C@@H](C(=O)N[C@@H](CCC(N)=O)C(=O)N[C@@H](CCCN=C(N)N)C(=O)N[C@@H](CCSC)C(=O)O)NC(=O)[C@H](CCCCN)NC(=O)[C@H](C)NC(=O)[C@H]([C@@H](C)O)NC(=O)[C@H](CCCN=C(N)N)NC(=O)[C@H](CCCN=C(N)N)NC(=O)[C@H](CCC(N)=O)NC1=O [GSKKPVPIIYCQRRTAKCQRM]
MIC [5]: 13 µM (≈ 32 µg/mL)
MIC [1]: 13 µM (≈ 32 µg/mL)

CC[C@H](C)[C@H](N)C(=O)N[C@@H](Cc1cnc[nH]1)C(=O)N[C@@H](CCCCN)C(=O)N[C@@H](CC(C)C)C(=O)N[C@H](C(=O)N[C@@H](CCCCN)C(=O)N[C@@H](CC(C)C)C(=O)N[C@@H](Cc1c[nH]c2ccccc12)C(=O)N[C@@H](CC(C)C)C(=O)N[C@@H](CC(N)=O)C(=O)N[C@@H](CC(C)C)C(=O)NCC(=O)N[C@@H](CCCCN)C(=O)N[C@@H](CCCCN)C(=O)N[C@@H](Cc1ccccc1)C(=O)O)C(C)C [IHKLVKLWLNLGKKF]
MIC [5]: 64 µM (≈ 118 µg/mL)
MIC [1]: 64 µM (≈ 118 µg/mL)
MIC (Acinetobacter baumannii): ≥ 64 µM
MIC [6]: > 64 µM
MIC [2]: > 64 µM

CC[C@H](C)[C@H](NC(=O)[C@H](CCCCN)NC(=O)[C@@H](N)CS)C(=O)N[C@@H](CC(N)=O)C(=O)N[C@@H](CCCCN)C(=O)N[C@@H](CCC(N)=O)C(=O)N[C@@H](CS)C(=O)O [CKINKQC]
MIC (Staphylococcus aureus): > 200 µM
MIC (Candida albicans): > 200 µM
MIC (Escherichia coli): > 200 µM
